From a melting point compilation (Tetko et al.; mined from patent text by program, amines drawn as free bases though some values may be those of a salt)

Compound | melting point [°C]
COc1cc(OC)nc(NC(=O)NS(=O)(=O)c2ccccc2CCOC(C)=O)n1 | 160 to 162
Clc1ccc(-c2ncc3nc(Cl)cc(Cl)n23)cc1 | 203 to 205
CCNC(=S)Nc1ccc(NNC(C)=O)cc1 | 191 to 193
CCCn1nc(C(=O)c2cccc(O)c2)c2cccc(C(F)(F)F)c21 | 118
Cc1cc2oc(NC(=O)Nc3c(C)cccc3C)c(-c3ccccc3Cl)c2cc1C | 252 to 254
O=c1[nH]c2c([nH]c1=O)C(N1CCOCC1)c1ccccc1-2 (stereo not drawn) | 265 to 267
COc1cccc(-c2nc(-c3ccc(S(C)=O)cc3)[nH]c2-c2ccncc2)c1 (stereo not drawn) | 167 to 168
O=S1(=O)C=Cc2cc(Br)ccc2O1 | 140 to 142
CNS(=O)(=O)c1cn(C)c2cc(Cl)c(F)cc2c1=O | 235 to 236
C/C=C\NC(=O)c1c(Cl)cccc1[Si](C)(C)C | 101 to 102
Brc1nccc2ncccc12 | 112 to 113
O=C(O)c1ccc(OCCCCCCc2ccc3cc(OCc4ccccc4)c(OCc4ccccc4)cc3c2)cc1 | 153 to 155
COc1ccsc1NC(=O)Nc1cc([N+](=O)[O-])ccc1O | 173
O=C(CNc1c(C(=O)O)[nH]c2cc(Cl)cc(Cl)c12)c1ccc(F)cc1 | 259 to 261
COC(=O)c1ccc(C(=O)C2CCC3=C(N=C(C(C)C)C(C(C)C)N3)C2=O)cc1 (stereo not drawn) | 82 to 84
COC(=O)c1cccc(CSc2c(O)cc(-c3ccccc3)oc2=O)c1 | 170 to 171
CC(=O)c1cc2c(c(O)c1Cl)C(C)(C)CC2(C)C | 78 to 80
NS(=O)(=O)c1ccc(-c2[nH]c3ccccc3c2-c2ccc(F)cc2)cc1 | 228 to 230
ClCCNc1ccnc2cc(Cl)ccc12 | 239 to 240
COC(=O)Nc1nc(C)c(-c2nc3ccccc3c(=O)n2-c2cccc(C)c2)s1 | 232 to 233
COC(=O)C1C2C=CC(C2)C1N(C)S(=O)(=O)c1ccc(OCc2ccccc2)cc1 (stereo not drawn) | 103 to 104
CCN(CCc1c[nH]c2ccc(F)cc12)C1COc2c(F)ccc(C(=O)NC)c2C1 (stereo not drawn) | 125
CC(=O)OC(c1ccccc1F)c1scnc1C (stereo not drawn) | 53 to 56
O=[N+]([O-])c1cc(Br)ccc1NCC(F)(F)F | 118 to 120
COc1ccc(-c2nc(NS(=O)(=O)c3ccc(C(C)(C)C)cc3)c(Oc3ccccc3OC)c(OC[C@@H](O)CO)n2)cc1 | 141 to 142
CC(C)c1ccc(-c2ccc(-c3cccc(C(=O)O)c3)o2)cc1 | 172 to 176

Compound | melting point [°C]
O=c1c(C(F)(F)F)cn(C2CC(O)C(COCc3ccccc3)O2)c(=O)n1C1CCCO1 (stereo not drawn) | 145 to 147
O=C(O)c1ccc2c(c1)S(=O)c1cc(F)ccc1C=C2 (stereo not drawn) | 255 to 257
CCOC(=O)c1cn(-c2ncns2)c2nc(Cl)c(F)cc2c1=O | 203 to 206
COc1ccc2c(n1)c(CCNC(=O)c1ccco1)c1n2CCCC1 | 104 to 105
O=Cc1cn(-c2ccccn2)nc1-c1ccc([N+](=O)[O-])o1 | 191 to 192
COc1cccnc1OCC(O)CO (stereo not drawn) | 62 to 65
COc1cc2c(=O)c(C#N)c[nH]c2cc1F | 147 to 149
Cc1c(C)c2c(c(C)c1NC(=O)NC(C)(C)C)C(O)(c1ccc3ccccc3c1)C(C)(C)O2 (stereo not drawn) | 212 to 214
O=C(NCCCCCCNC(=O)NS(=O)(=O)c1ccc(Br)o1)NS(=O)(=O)c1ccc(Br)o1 | 98 to 99
NC(=S)Nc1ccccc1C1CC1 | 152 to 154
Cc1cc(O)c(S(=O)CC(C)C)c(=O)o1 (stereo not drawn) | 102 to 103
CC(C)C1=C(Cl)C(=O)c2ccccc2C1=O | 57 to 59
Cc1ccc(S(=O)(=O)C2(CC#Cc3ccc(Cl)cc3)CC(=O)NC2=O)cc1 (stereo not drawn) | 186 to 188
COc1cccc(C(=O)N2CCc3cc(O)c(OC)cc3C2=O)c1 | 198 to 199
O=[N+]([O-])c1cc(Cl)c(Cl)cc1N[C@@H]1C[C@H](CO)[C@@H](O)[C@H]1O | 179 to 181
COC(=O)CCCCCNC(=O)C(CO)NS(=O)(=O)c1ccc(Cl)cc1 (racemic) | 83 to 86
O=C(Nc1nc(-c2ccco2)c(C(=O)c2ccccn2)s1)c1ccncc1 | 218 to 227
CCN1CC(OCC2CCC2)(C(F)(F)F)c2cc(F)ccc2NC1=O (stereo not drawn) | 137 to 138
CC(=O)NCCCn1c(-c2ccc(Br)cc2)csc1=Nc1ccccc1 | 155 to 157
O=Cc1ccc2ccn(C(c3ccccc3)c3cccc(C=Cc4ccc5ccccc5n4)c3)c2c1 (stereo not drawn) | 75
CC(C)(C)n1c(=O)[nH]c2ccccc21 | 146 to 147
CC(=O)C(C(=O)Cc1ccccc1)C(=O)NS(=O)(=O)c1ccc(C)cc1 (stereo not drawn) | 120
CNC(=O)ON=C1n2ccnc2S(=O)C1(C)C (stereo not drawn) | 148 to 149
CN(CCCCCC(=O)NO)C(=O)/C=C/C=C/c1ccccc1 | 145 to 147
Cc1ccc(S(=O)(=O)NCC(NS(=O)(=O)c2ccc(C)cc2)c2ccccc2)cc1 (stereo not drawn) | 148 to 149

Results, then the compound that gave them:

melting point [°C] | Compound
170 | CN(CCOc1ccc2ccc(N)nc2n1)C(=O)OC(C)(C)C
232 to 234 | CC(O)C#Cc1cc(F)c2ncc(C(=O)NCc3ccc(Cl)cc3)c(O)c2c1 (stereo not drawn)
147 | CC(=O)c1ccc(O)c(-n2nc3ccccc3n2)c1
125 | CCCCc1[nH]c2ccc([N+](=O)[O-])cc2c1C(=O)c1ccc(OCCCCl)cc1
166 to 168 | CCN1c2ncc(CO)cc2C(=O)N(C)c2ccc(Cl)nc21
112 to 114 | CCCNC(=O)C1(CCCCSc2nc3ccc(OCC)cc3s2)c2ccccc2-c2ccccc21
88 to 89 | CCCCC(=O)c1c(-c2ccncc2)[nH]c(-c2ccncc2)c1C
142 to 143 | CCCOc1ccccc1-c1nc2nc(NCCC(=O)OCC)ncc2c(=O)[nH]1
203 to 205 | CCCc1c(COc2ccc(-c3nnn[nH]3)cc2)ccc(C(C)=O)c1O
92 to 93 | CCCCCCCCCCCCC1=C(O)C(=O)c2c(C)cccc2C1=O
135 | COc1ccc2cc(-c3ccccc3)cc(CCNC(C)=O)c2c1
160 to 162 | Cc1nc(N)nc(N)c1OCCCc1ccccc1
192 to 194 | CN(O)C(=O)C(C)(C)Cc1ccc2c(c1)C(=O)c1ccccc1CO2
165 to 167 | CC(C)Cc1nn(C)c(=O)c2cc(C(O)c3cccc4ccccc34)sc12 (stereo not drawn)
79 to 81 | Cc1nc2ccccc2c(=O)o1
66 to 67 | CCCCCCCCc1ccc(OCC(=O)Cn2ncc3ccccc32)cc1
247 to 248 | CCc1cnc2c(NC(=O)c3c(Cl)cccc3Cl)cccc2c1C(N)=O
42 to 45 | CCCCCCCCCCCCCCCc1cc2c(C(=O)OCC)cccc2[nH]1
73 to 74 | Cc1cc([N+](=O)[O-])cnc1CCC#N
160 to 162 | CCCCn1c(=O)c(NC(=O)Nc2cc(Cc3ncc[nH]3)ccc2C(C)(C)C)c(-c2cccc(O)c2)c2cccnc21
305 to 308 | CC(=O)c1ccc2c(c1)NC(NC(C)C)=NS2(=O)=O
125 to 127 | CCCN(CCC)CCc1ccc(O)c2[nH]ncc12
